ChEMBL document CHEMBL1201862, “PubChem BioAssay data set” (2004)
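Results reflect a 48-hour exposure of cells in 96-well plates to compound at five concentrations. GI50 is the concentration that inhibits growth by half.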 Activity calls are given as the source filed them. Cut-off read from the data, not from the text of the source: active = GI50 up to about 1.1 µM and inactive = higher.

How the values were obtained:
Test in all cases: NCI anticancer screen, dose series, 48 h
[1] = tested on: UO-31
[2] = tested on: MDA-MB-435
[3] = tested on: SF-268
[4] = tested on: NCI/ADR-RES
[5] = tested on: UACC-257
[6] = tested on: RXF 393
[7] = tested on: KM12
[8] = tested on: EKVX
[9] = tested on: OVCAR-5
[10] = tested on: HCT-15
[11] = tested on: SR
[12] = tested on: SK-MEL-2
[13] = tested on: CCRF-CEM
[14] = tested on: NCI-H226
[15] = tested on: BT-549
[16] = tested on: NCI-H522
[17] = tested on: DU-145
[18] = tested on: SNB-19
[19] = tested on: IGROV-1
[20] = tested on: TK-10

Structure (SMILES) | GI50 [1] | GI50 [2] | GI50 [3] | GI50 [4] | GI50 [5] | GI50 [6] | GI50 [7] | GI50 [8] | GI50 [9] | GI50 [10] [µM] | GI50 [11] | GI50 [12] | GI50 [13] | GI50 [14] | GI50 [15] | GI50 [16] | GI50 [17] | GI50 [18] | GI50 [19] | GI50 [20]
Oc1ccc2ccccc2c1/N=N/c1ccc(/N=N/c2ccccc2)cc1 | 59 µM (inactive) | 64.1 µM (inactive) | > 100 µM (inactive) | > 100 µM (inactive) | > 100 µM (inactive) | > 100 µM (inactive) | 84.9 µM (inactive) | > 100 µM (inactive) | > 100 µM (inactive) | > 100 | 23.6 µM (inactive) | > 100 µM (inactive) | > 100 µM (inactive) | > 100 µM (inactive) | > 100 µM (inactive) | 86.3 µM (inactive) | > 100 µM (inactive) | > 100 µM (inactive) | > 100 µM (inactive) | > 100 µM (inactive)
COc1cc2c(cc1O)C(Cc1ccc(OCc3ccccc3)c(OCc3ccccc3)c1)N(C(=O)NCCc1ccccc1)CC2 (stereo unspecified) | 69 µM (inactive) | > 100 µM (inactive) | > 100 µM (inactive) | > 100 µM (inactive) | > 100 µM (inactive) | > 100 µM (inactive) | > 100 µM (inactive) | > 100 µM (inactive) | > 100 µM (inactive) | > 100 | 37.3 µM (inactive) | > 100 µM (inactive) | 15 µM (inactive) | > 100 µM (inactive) | > 100 µM (inactive) | 2.88 µM (inactive) | > 100 µM (inactive) | > 100 µM (inactive) | > 100 µM (inactive) | > 100 µM (inactive)
Cc1ccccc1C(=O)C#Cc1cn(C2CC(O)C(CO)O2)c(=O)[nH]c1=O (stereo unspecified) | > 100 µM (inactive) | > 100 µM (inactive) | > 100 µM (inactive) | > 100 µM (inactive) | > 100 µM (inactive) | > 100 µM (inactive) | > 100 µM (inactive) | > 100 µM (inactive) | – | > 100 | 27.9 µM (inactive) | > 100 µM (inactive) | 20.5 µM (inactive) | > 100 µM (inactive) | > 100 µM (inactive) | 14.7 µM (inactive) | > 100 µM (inactive) | > 100 µM (inactive) | > 100 µM (inactive) | > 100 µM (inactive)
O=C(c1ccc(F)cc1)c1cccc(C(=O)c2ccc(F)cc2)n1 | 45.3 µM (inactive) | > 100 µM (inactive) | 24.6 µM (inactive) | 90.8 µM (inactive) | 47.4 µM (inactive) | 5.56 µM (inactive) | > 100 µM (inactive) | > 100 µM (inactive) | > 95.3 µM (inactive) | > 100 | > 100 µM (inactive) | 27.7 µM (inactive) | > 100 µM (inactive) | > 45.4 µM (inactive) | 12.2 µM (inactive) | 20.3 µM (inactive) | > 100 µM (inactive) | 25.2 µM (inactive) | 24.9 µM (inactive) | 39.7 µM (inactive)
Cc1n(CC(C)C)c2c([n+]1C)C(=O)c1ccccc1C2=O | 1.29 µM (inactive) | 0.143 µM (active) | < 0.0169 µM (active) | 2.43 µM (inactive) | 0.0513 µM (active) | 0.811 µM (active) | 0.205 µM (active) | 0.0631 µM (active) | 0.244 µM (active) | 0.478 | 0.301 µM (active) | 0.13 µM (active) | 0.122 µM (active) | 0.311 µM (active) | 0.227 µM (active) | 0.0176 µM (active) | 0.203 µM (active) | 0.0716 µM (active) | 0.0224 µM (active) | 0.411 µM (active)
O=C1c2ccccc2-c2ccc(N(Cc3ccc(Br)cc3)Cc3ccc(Br)cc3)cc21 | > 100 µM (inactive) | > 100 µM (inactive) | > 100 µM (inactive) | > 100 µM (inactive) | > 100 µM (inactive) | > 100 µM (inactive) | > 100 µM (inactive) | > 100 µM (inactive) | > 100 µM (inactive) | > 100 | 2.44 µM (inactive) | > 100 µM (inactive) | 11.1 µM (inactive) | > 100 µM (inactive) | > 100 µM (inactive) | > 100 µM (inactive) | > 100 µM (inactive) | > 100 µM (inactive) | > 100 µM (inactive) | > 100 µM (inactive)
C(=NCCN1CCOCC1)=NC1CCCCC1 | > 100 µM (inactive) | > 100 µM (inactive) | > 100 µM (inactive) | > 100 µM (inactive) | > 100 µM (inactive) | > 100 µM (inactive) | > 100 µM (inactive) | > 100 µM (inactive) | > 100 µM (inactive) | > 100 | 12.4 µM (inactive) | > 100 µM (inactive) | – | > 100 µM (inactive) | > 100 µM (inactive) | > 100 µM (inactive) | > 100 µM (inactive) | > 100 µM (inactive) | > 100 µM (inactive) | > 100 µM (inactive)
Cc1ccc(S(=O)(=O)C2=C(C(C)C)N=NC2(C)C)cc1 | > 100 µM (inactive) | 47.6 µM (inactive) | > 100 µM (inactive) | 64.7 µM (inactive) | > 100 µM (inactive) | 66.5 µM (inactive) | > 100 µM (inactive) | > 100 µM (inactive) | > 100 µM (inactive) | 73.6 | 29.3 µM (inactive) | > 100 µM (inactive) | – | 61.8 µM (inactive) | 48.8 µM (inactive) | 36 µM (inactive) | 87.1 µM (inactive) | > 100 µM (inactive) | 91.4 µM (inactive) | > 100 µM (inactive)
COc1cc2oc(=O)ccc2cc1CC=C(C)C [SUBEROSIN] | 21.9 µM (inactive) | 43.3 µM (inactive) | 47.8 µM (inactive) | 22.9 µM (inactive) | 54.3 µM (inactive) | 16.9 µM (inactive) | 36.9 µM (inactive) | 5.81 µM (inactive) | 72.6 µM (inactive) | – | 21 µM (inactive) | 45.3 µM (inactive) | 44 µM (inactive) | 29.6 µM (inactive) | 24.4 µM (inactive) | 42.3 µM (inactive) | 36.8 µM (inactive) | 50.6 µM (inactive) | 62.8 µM (inactive) | 19.9 µM (inactive)
COc1ccc(O)c(/C(C)=N/NC(=S)N(C)C)c1 | 17.7 µM (inactive) | 57.7 µM (inactive) | 20.9 µM (inactive) | 18 µM (inactive) | 63.4 µM (inactive) | > 100 µM (inactive) | 42 µM (inactive) | 31.9 µM (inactive) | > 61.9 µM (inactive) | 5.12 | 25.8 µM (inactive) | > 43.2 µM (inactive) | 8.93 µM (inactive) | 16.1 µM (inactive) | 36 µM (inactive) | 1.33 µM (inactive) | 44 µM (inactive) | 40.5 µM (inactive) | 14.3 µM (inactive) | –
CC(C)CC(NC(=O)C(COc1ccc([N+](=O)[O-])cc1)Cc1ccccc1)C(=O)Nc1ccccc1 (stereo unspecified) | 7 µM (inactive) | 14.1 µM (inactive) | – | 12.7 µM (inactive) | 25.7 µM (inactive) | 16.3 µM (inactive) | 5.85 µM (inactive) | 23.6 µM (inactive) | 40.3 µM (inactive) | 13.3 | 41.5 µM (inactive) | 21.7 µM (inactive) | 7.26 µM (inactive) | 3.44 µM (inactive) | 10.9 µM (inactive) | 12.5 µM (inactive) | > 100 µM (inactive) | 7.76 µM (inactive) | 7.8 µM (inactive) | 11.5 µM (inactive)
COc1ccccc1N1C(=O)CC(=O)N(C(=O)CCCCCCCCC(=O)N2C(=O)CC(=O)N(c3ccccc3OC)C2=S)C1=S | 45.9 µM (inactive) | > 100 µM (inactive) | > 100 µM (inactive) | 91.6 µM (inactive) | > 100 µM (inactive) | 99.3 µM (inactive) | 53.8 µM (inactive) | 51.8 µM (inactive) | > 100 µM (inactive) | 96.4 | 28.4 µM (inactive) | > 100 µM (inactive) | 27.3 µM (inactive) | > 100 µM (inactive) | 55.3 µM (inactive) | 47.3 µM (inactive) | > 100 µM (inactive) | 74.1 µM (inactive) | – | > 100 µM (inactive)
OC[C@H]1O[C@@H](n2cnc3c(S)ncnc32)[C@H](O)[C@@H]1O [THIOINOSINE] | – | 2330 µM (inactive) | > 2500 µM (inactive) | 2040 µM (inactive) | > 2500 µM (inactive) | 2460 µM (inactive) | > 2500 µM (inactive) | > 2500 µM (inactive) | > 2500 µM (inactive) | > 2500 | 1890 µM (inactive) | 1490 µM (inactive) | 1120 µM (inactive) | > 2500 µM (inactive) | > 2500 µM (inactive) | 2160 µM (inactive) | 1390 µM (inactive) | > 1580 µM (inactive) | > 2180 µM (inactive) | > 2500 µM (inactive)
c1cc2nnc1SCCCSc1ccc(nn1)SCCCSc1ccc(nn1)SCCCS2 | > 100 µM (inactive) | > 100 µM (inactive) | 92 µM (inactive) | > 100 µM (inactive) | > 100 µM (inactive) | 56.4 µM (inactive) | > 100 µM (inactive) | – | > 100 µM (inactive) | > 100 | > 100 µM (inactive) | 83.8 µM (inactive) | > 100 µM (inactive) | > 100 µM (inactive) | > 100 µM (inactive) | > 100 µM (inactive) | > 100 µM (inactive) | 44.7 µM (inactive) | > 100 µM (inactive) | > 100 µM (inactive)
